# Values quoted from earlier work as cited in US9623047B2, “Composition and method for improving gastrointestinal health of equine” (Photo Finish Supplements, LLC, priority 2012, dated 2017).
# Key:
# [1] = system: tooth pulp and periapical tissue; conditions: protective barrier in dental repair and treatment
# [2] = system: tooth pulp cells
smiles,measurement,setting,value
"[Ca+2].[OH-].[OH-] [Ca(OH)2, calcium hydroxide]",anti-microbial action,[1],powerful anti-microbial action
same,effect on regrowth of damaged tissue,[1],significant stimulatory effect
same,DNA synthesis of tooth pulp cells,[2],increase
